Reference: patent US9062037B2, “Tazarotene derivatives” (Stiefel Laboratories, Inc., priority 2009, dated 2015)
Like-named read-outs stand apart in the source and are kept apart here.

Assays:
[1] = Reaction with benzoyl peroxide (BPO) in solution; assay type: physicochemical; conditions: at all three temperatures (35° C., room temperature, 5° C.); BPO 50-fold excess by weight
Description: The reaction of (i) tazarotene, tazarotene benzoate, hydroxy tazarotenic acid and tazarotene nicotinate with (ii) benzoyl peroxide (BPO) in 30% aqueous solutions was monitored at 35° C., room temperature and 5° C.
Individual solutions of each compound were prepared at approximately 0.25 mg/mL in acetonitrile:water (6:4 by volume). Reactions were initiated by mixing equal volumes of the test solution with an approximately 12 mg/mL solution of benzoyl peroxide (BPO) in acetonitrile:water (4:1 by volume). Therefore, the reaction solution contained approximately 0.125 mg/mL of the test compound and the BPO was at a 50-fold excess by weight (i.e. at the same ratio as a product containing 0.1% tazarotene and 5% BPO). Aliquots of the reaction solutions were stored at various temperatures protected from light.
Reactions were quenched by diluting 30 μL of the reaction solution to 50 mL with a diluent (acetonitrile:water in a ratio of 1:1 by volume) and storing the sample at 10° C. in the LC/MS sample tray or at 5° C. for storage. Duplicate samples were prepared at each time point (three at the start of the reaction) and the results were averaged together to generate a single value.
Samples were analyzed on a Waters Acquity UPLC with a Waters Xevo TQMS using an ESI source in the positive mode controlled by MassLynx V4.1 software. […]

[2] = tested on: SkinEthic RHE cultures; assay: H and E staining and immunohistochemistry for K10, K19 and filaggrin in SkinEthic RHE cultures; assay type: cell-based, human; conditions: 6 μl test article, 72 hours
Description: (§1) SkinEthic RHE cultures were transferred into 6-well plates containing 1.0 mL/well growth media. The cultures were equilibrated at 37° C. and the media was changed daily. The cultures were subsequently placed in 60 mm petri dishes containing 3.5 mL growth media. 6 μl aliquots of the Test Articles shown in Table 3 were applied to duplicate cultures. The cultures were incubated at 37° C. for 72 hours. At the end of the incubation period, the growth media was collected and stored at −20° C. The tissues were cut in half and one half was placed in 10% NBF for histology, while the other half was placed in RNAlater™ solution (Ambion). The following analyses were performed: a) IL-1α and IL-8 activity assay; b) Hand E staining; c) Immunohistochemistry for K10, K19 and filaggrin; and d) qRT-PCR to quantitate K10, K19 and filaggrin expression.

[3] = tested on: SkinEthic RHE cultures; assay: qRT-PCR of K10, K19 and filaggrin expression in SkinEthic RHE cultures; assay type: cell-based, human; conditions: 6 μl test article, 72 hours
Description: as §1

[4] = Metabolism in the presence of human skin microsomes; conditions: for Half-life / k constant: HSkM
Description: (§2) Hepatic microsomal reactions were carried out in microcentrifuge tubes in the following manner. Human liver microsomes (0.5 or 1.0 mg/ml protein), Test Article (1 or 10 μM), paraoxon (0, 10 or 100 μM), NADPH regenerating system (10 mM glucose-6-phosphate, 1 unit/ml glucose-6-phosphate dehydrogenase, 1 mM NADP^+), magnesium chloride (5 mM) in 0.1 M potassium phosphate buffer, pH 7.4 were incubated at 37° C. in a shaking water bath. Reactions were initiated with the addition of substrate with the exception of the zero-time incubations. The total reaction volume was 0.2 ml. The reactions were incubated for 15, 30, 45 or 60 minutes, terminated with 0.2 ml ice-cold acetonitrile and then placed on ice. For zero-time incubations, ice cold acetonitrile was added to the mixture containing microsomes, along with NADPH regenerating system, magnesium chloride in phosphate buffer and the Test Article. Each time point was carried out in triplicate.
(§3) Five time points were chosen, but because of the limitation of human skin microsome supply, each one was carried out in duplicate. Skin microsomal reactions were carried out as described above for hepatic microsomal reactions with the following two exceptions. Firstly, the total reaction volume was 0.1 mL. Secondly, incubations were terminated with 0.1 mL acetonitrile.

[5] = in vitro; conditions: human, human skin microsomes, pH 7.4
Description: as §2, §3

[6] = tested on: A431 cells; assay: PMA-induced IL-6 release from A431 cultures; assay type: cell-based, human; conditions: PMA 10 ng/mL; retinoids 0.01 to 1 μg/mL; 48 hours
Description: A431 cells were purchased from ATCC(CRL-1555). Cells were seeded onto 12-well plates at a density of 250,000 cells/well and incubated for 72 hours at 37° C./5% CO2 to allow cells to grow to confluency. Phorbol-12-myristate 13-acetate (PMA), diluted in DMSO (10 mg/mL stock), was added in a concentration of 10 ng/mL and retinoids were added in concentrations of 0.01 to 1 μg/mL from a 10 mg/mL stock solution in DMSO. Cultures were incubated for 48 hours at 37° C. At the end of the incubation period, growth media was collected and cell viability was determined using a CellTiterGlo assay kit (Promega). Concentrations of IL-6 were determined by ELISA and normalized based on cell viability.
It is known that PMA up regulates IL-6 expression through transactivation of the nuclear transcription factor, AP-1. Retinoids, such as tretinoin, are known to inhibit transactivation of AP-1 via retinoic acid receptors.

[7] = for k constant: HLM
Description: as §2
Disappearance of Test Article and formation of metabolites following in vitro metabolism were determined by LC-MS/MS using multiple reaction monitoring. LightSight® software (Applied Biosystems, Foster City, Calif.) was used to generate the mass spectrometry methods and carry out the data mining.
Control incubations were carried out with the identical incubation procedures as described above with the following exceptions. In negative control reactions, microsomes were not included. […] Duplicate reactions with an initial concentration of 10 μM were incubated for 0 or 30 minutes. Microsomal metabolic stability of 7-ethoxycoumarin was determined by LC-MS/MS.

[8] = 1 μM initial concentration, Complete (with NADPH), 0 min
[9] = 1 μM initial concentration, Complete (with NADPH), 15 min
[10] = 1 μM initial concentration, Complete (with NADPH), 30 min
[11] = 1 μM initial concentration, Complete (with NADPH), 45 min
[12] = 1 μM initial concentration, Complete (with NADPH), 60 min
[13] = 1 μM initial concentration, Without NADPH, 0 min
[14] = 1 μM initial concentration, Without NADPH, 15 min
[15] = 1 μM initial concentration, Without NADPH, 30 min
[16] = 1 μM initial concentration, Without NADPH, 45 min
[17] = 1 μM initial concentration, Without NADPH, 60 min
[18] = 10 μM initial concentration, Complete (with NADPH), 0 min
[19] = 10 μM initial concentration, Complete (with NADPH), 15 min
[20] = 10 μM initial concentration, Complete (with NADPH), 30 min
[21] = 10 μM initial concentration, Complete (with NADPH), 45 min
[22] = 10 μM initial concentration, Complete (with NADPH), 60 min
[23] = 10 μM initial concentration, Without NADPH, 0 min
[24] = 10 μM initial concentration, Without NADPH, 15 min
[25] = 10 μM initial concentration, Without NADPH, 30 min
[26] = 10 μM initial concentration, Without NADPH, 45 min
[27] = 10 μM initial concentration, Without NADPH, 60 min

CCOC(=O)c1ccc(C#Cc2ccc3c(c2)C(C)(C)CC(OC(=O)c2ccccc2)S3)nc1 (stereo not drawn) [Compound 4, 6-(2-(2-benzoyloxy-4,4-dimethylthiochroman-6-yl)ethynyl)nicotinic acid, ethyl ester]
less reactive with BPO than tazarotene and hydroxy tazarotenic acid [1]: ~25 times | filaggrin by immunohistochemistry [2]: down regulated | down regulation of K10 gene expression compared to untreated and vehicle controls [3]: uninterpretable | down regulation of filaggrin gene expression compared to untreated and vehicle controls [3]: equivocal | rate of metabolism by human skin microsomes relative to human liver microsomes [4]: slower rate | Half-life ([4]; 1 μM, Complete): 8.25 h | k constant ([4]; 1 μM, Complete): −0.0014 | Half-life ([4]; 1 μM, Without NADPH): 3.62 h | k constant ([4]; 1 μM, Without NADPH): −0.0032 | k constant ([4]; 10 μM, Complete): −0.0017 | Half-life ([4]; 10 μM, without NADPH): 7.7 h | k constant ([4]; 10 μM, without NADPH): −0.0015 | metabolized ([4]; after 150 min, 2 mg/ml human skin microsomes): 20% | half-life at 10 µM [5]: 6.8 h | PMA-induced IL-6 release [6]: significantly decreased | Test Article remaining, percent of initial concentration [7, 8]: 100% | Test Article remaining, percent of initial concentration [7, 9]: 20.3% | Test Article remaining, percent of initial concentration [7, 10]: 4.45% | Test Article remaining, percent of initial concentration [7, 11]: 1.47% | Test Article remaining, percent of initial concentration [7, 12]: 0.73% | Test Article remaining, percent of initial concentration [7, 13]: 100% | Test Article remaining, percent of initial concentration [7, 14]: 17.3% | Test Article remaining, percent of initial concentration [7, 15]: 2.97% | Test Article remaining, percent of initial concentration [7, 16]: 1.07% | Test Article remaining, percent of initial concentration [7, 17]: 0.53% | Test Article remaining, percent of initial concentration [7, 18]: 100% | Test Article remaining, percent of initial concentration [7, 19]: 99.3% | Test Article remaining, percent of initial concentration [7, 20]: 73.4% | Test Article remaining, percent of initial concentration [7, 21]: 63.2% | Test Article remaining, percent of initial concentration [7, 22]: 55.2% | Test Article remaining, percent of initial concentration [7, 23]: 100% | Test Article remaining, percent of initial concentration [7, 24]: 87.0% | Test Article remaining, percent of initial concentration [7, 25]: 64.0% | Test Article remaining, percent of initial concentration [7, 26]: 51.0% | Test Article remaining, percent of initial concentration [7, 27]: 41.0% | k constant ([7]; 1 μM, Complete): −0.0893 | k constant ([7]; 1 μM, Without NADPH): −0.0964 | k constant ([7]; 10 μM, Complete): −0.0097 | k constant ([7]; 10 μM, Without NADPH): −0.0146

CCOC(=O)c1ccc(C#Cc2ccc3c(c2)C(C)(C)CCS3)nc1 [Tazarotene, ethyl 6-[2-(4,4-dimethylthiochroman-6-yl)-ethynyl nicotinate]
Test Article remaining, percent of initial concentration [7, 8]: 100% | Test Article remaining, percent of initial concentration [7, 9]: 21.1% | Test Article remaining, percent of initial concentration [7, 10]: 4.91% | Test Article remaining, percent of initial concentration [7, 11]: 1.80% | Test Article remaining, percent of initial concentration [7, 12]: 0.70% | Test Article remaining, percent of initial concentration [7, 13]: 100% | Test Article remaining, percent of initial concentration [7, 14]: 22.0% | Test Article remaining, percent of initial concentration [7, 15]: 4.86% | Test Article remaining, percent of initial concentration [7, 16]: 1.43% | Test Article remaining, percent of initial concentration [7, 17]: 0.65% | Test Article remaining, percent of initial concentration [7, 18]: 100% | Test Article remaining, percent of initial concentration [7, 19]: 24.1% | Test Article remaining, percent of initial concentration [7, 20]: 6.55% | Test Article remaining, percent of initial concentration [7, 21]: 2.18% | Test Article remaining, percent of initial concentration [7, 22]: 0.89% | Test Article remaining, percent of initial concentration [7, 23]: 100% | Test Article remaining, percent of initial concentration [7, 24]: 21.9% | Test Article remaining, percent of initial concentration [7, 25]: 4.64% | Test Article remaining, percent of initial concentration [7, 26]: 1.48% | Test Article remaining, percent of initial concentration [7, 27]: 0.55% | k constant ([7]; 1 μM, Complete): −0.0880 | k constant ([7]; 1 μM, Without NADPH): −0.0899 | k constant ([7]; 10 μM, Complete): −0.0827 | k constant ([7]; 10 μM, Without NADPH): −0.0914
